Test results from patent US20230094545A1, “S1P RECEPTOR MODULATORS” (AKAAL PHARMA PTY LTD, priority 2020, published 2023).
“And” between values parts separate entries of the source, which are not always exact repeats. Equal values may be shown once.

Tests used:
[1] = molecular target: S1P1 receptor (Homo sapiens, UniProt P21453); assay: S1P1 receptor degradation (activity v/s degradation margin); format: cell-based
[2] = Single oral dose in healthy human subjects: systemic exposure, heart rate, lymphopenia; format: in vivo; conditions: humans; for bradycardia: 0.5 mg to 12 mg single oral dose, 72 hours monitoring
Procedure: The observance of bradycardia with S1P1 selective agonists has been reported to be species specific.
Human subjects were treated in cohorts of different dose levels (each cohort=8 human subjects) with a compound of formula (I)@0.5 mg, 2 mg, 6 mg and 12 mg single oral dose.

[3] = 8 mg daily oral dosing for 7 days in healthy human subjects: systemic exposure, lymphocyte counts; format: in vivo
Procedure: One cohort (8 human subjects) was treated daily with 8 mg oral dosing for 7 consecutive days.

[4] = system: experimental autoimmune encephalomyelitis (EAE); assay: EAE model, RT-PCR for IL-31, IL1β and IFNγ in spleen; format: in vivo; conditions: 3 mg/kg from 11th day, Day 27
Procedure: The efficacy of the compound of formula (I) was assessed in an animal model of experimental autoimmune encephalomyelitis (EAE), which is a widely-accepted model of demyelinating diseases such as MS. The cDNA was prepared from spleen obtained from Vehicle treated (Control), EAE induced (no treatment) and EAE induced (a compound of formula (I) treated) animals (n=5 each group) at the recovery (Day 27 from 1st day of MBP immunization). The treatment with a compound of Formula I (3 mg/kg) was initiated on the 11th day from MBP immunization. cDNA was synthesized using Bio-Rad cDNA synthesis kit. RT-PCR was performed for IL-31, IL1β and IFNγ. Primers were obtained from Qiagen and the samples were analysed on Bio-Rad CFX96Real-Time System. […] Statistical Significance of the data is represented by p value. *denotes p≤0.05, **denotes p≤0.01.

[5] = system: paclitaxel induced neuropathic pain; assay: Paclitaxel induced neuropathic pain; format: in vivo, Sprague Dawley Rats
Procedure: Forty-eight male Sprague Dawley Rats were assigned to different treatment and control groups containing 8 animals per group. All animals, except the Naive control were injected with Paclitaxel (2 mg/kg) intraperitoneally on four alternate days (D0, D2, D4 and D6). For prophylactic intervention, the compound of Formula I was dosed orally at dose of 0.3, 1 and 3 mg/kg/day when the treatment was initiated along with paclitaxel treatment and the dosage was continued until day 15 post first paclitaxel injection. For therapeutic intervention, the compound of Formula I was dosed orally at dose of 3 mg/kg/day when the treatment was initiated after establishment of neuropathic pain i.e. on day 16 post first paclitaxel injection and was continued for the next 7 days.
For behavioural testing each rat was allowed to acclimatize individually to a transparent enclosure on elevated wire mesh for at least 15 min. Behavioural testing was performed using an Electronic von Frey Aesthesiometer (IITC Life Science) to evaluate paw withdrawal threshold to mechanical stimulus.
Based on these findings it can be concluded that treatment with the compound of formula (I) is effective both as a prophylactic and therapeutic and has an anti-allodynic effect in paclitaxel induced neuropathic pain.

[6] = system: LPS mediated systemic inflammation; assay: LPS-induced sepsis model; format: in vivo, Sprague-Dawley rats; conditions: 3 mg/Kg oral 1 h after LPS and every 24 h
Procedure: Sepsis was induced in female Sprague-Dawley rats by LPS (5 mg/kg) administration and treated orally with compound of Formula I (3 mg/Kg) 1 h after and every 24 h thereafter to determine the effect of a compound of formula (I) in this animal model of sepsis (LPS mediated systemic inflammation). Animals were sacrificed at 24 and 72h post LPS treatment.

[7] = Systemic exposure in human subjects after topical application; conditions: in vivo
Text: The medicaments according to the present disclosure may contain from about 0.05% to about 10% by weight, or from about 0.5% to about 10% by weight, preferably from about 1.0 to about 4.5% by weight or preferably from about 1.5 to about 4.5% by weight, of the S1P receptor modulator. […] The dose of the S1P receptor modulator used in the treatment of the aforementioned disorders will vary in the usual way with the seriousness of the disorders, the weight of the sufferer, and other similar factors. In preferred embodiments, the medicament is applied to 100 cm^2 of body surface area per 1 g of medicament, up to 1000 cm^2 of body surface area per 1 g of medicament. The medicament can be applied such that the standard daily therapeutic dosage of active compound is ≤3 g. The topical dose level and strength of dose formulation with the compound of formula (I) may be extended to higher levels without risk of bradycardia and lymphopenia. For example, dose levels of medicaments according to the methods of the present disclosure may include up to: • 1. 10 g daily dose of up to 30% ww strength formulation with 1 g up to 300 cm^2 surface area • 2. 10 g daily dose of up to 30% ww strength formulation with 1 g up to 1000 cm2 surface area • 3. 100 g daily dose of up to 3% ww strength formulation with 1 g up to 300 cm^2 surface area • 4. 100 g daily dose of up to 3% ww strength formulation with 1 g up to 1000 cm2 surface area • 5. 300 g daily dose of up to 1% ww strength formulation with 1 g up to 300 cm^2 surface area. • 6. 300 g daily dose of up to 1% ww strength formulation with 1 g up to 1000 cm^2 surface area
The body surface area of an adult is around 16,000 cm^2 to 18,000 cm^2 and the skin surface area varies from 10,000 cm^2 to 20,000 cm^2 (https://hypertextbook.com/facts/2001/IgorFridman.shtml, and references cited within). Human subjects received a topical application of 1 g of 3% by weight formulation per 150 cm^2 of body surface area (over the skin) twice daily for 21 days. The resulting systemic exposure was approximately 2.2 ng/ml.

[8] = individual healthy human subjects, 8 mg oral daily for 7 days, listed as compound of formula (1)

Chain of S1P1 receptor (P21453 whole entry): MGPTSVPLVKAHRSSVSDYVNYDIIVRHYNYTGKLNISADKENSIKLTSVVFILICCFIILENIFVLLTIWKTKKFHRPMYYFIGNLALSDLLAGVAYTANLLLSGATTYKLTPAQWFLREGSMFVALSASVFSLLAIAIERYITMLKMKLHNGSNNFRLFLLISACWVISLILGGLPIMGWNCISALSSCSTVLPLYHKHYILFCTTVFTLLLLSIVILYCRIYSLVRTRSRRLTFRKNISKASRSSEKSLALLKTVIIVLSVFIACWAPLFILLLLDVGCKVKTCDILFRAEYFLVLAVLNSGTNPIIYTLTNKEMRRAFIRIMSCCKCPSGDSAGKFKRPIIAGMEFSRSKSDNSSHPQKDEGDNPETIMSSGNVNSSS

With CCCOc1ccc(-c2nc(-c3ccc4oc(C(N)(CO)CO)cc4c3)no2)cc1Cl [compound of formula (I)] the “activity v/s degradation margin” value [1] was “greater than 100”, the systemic exposure ([2]; 0.5 mg single oral dose) was 0.6 ng/mL and the bradycardia [2] was “no bradycardia events”. The bradycardia ([2]; listed as S1P1 receptor modulator of formula (I)) was “did not induce bradycardia”, the bradycardia ([2]; listed as compound of Formula I) was “no dose proportional or dose relevant bradycardia event” and the systemic exposure ([2]; 2 mg single oral dose) was 2.4 ng/mL. For the same compound, the systemic exposure ([2]; 6 mg single oral dose) was 7.1 ng/mL, the systemic exposure ([2]; 12 mg single oral dose) was 18.8 ng/mL and the lymphopenia ([2]; dose of ~0.17 mg/kg) was “no induction of significant lymphopenia”. For the same compound, the systemic exposure ([2]; dose of ~0.17 mg/kg) was 18.8 ng/mL, the bradycardia and lymphopenia ([3]; 2 g daily topical 3% ww for 3 weeks and oral 8 mg daily for one week) was “without event of bradycardia and significant lymphopenia” and the concentration at 7 days ([3]; human, in vivo, po, 8 mg daily, humans, 8 mg oral daily for 7 days) was about 53 ng/mL. For the same compound, the measured lymphopenia ([3]; humans, 8 mg daily dosing for one week) was “up to 40%”, the lymphopenia ([3]; humans, 8 mg oral daily for 7 consecutive days) was “mild lymphopenia” and the “systemic exposure (mean / average)” value ([3]; humans, 8 mg oral daily for 7 days) was 53.3 ng/mL. The “ALC Change (%)” value [3, 8] was −33.33% and −27.66% and −35.71% and 0% and +40% and −22.58% and −15.56% and −20%, the “CD3 Change (%)” value [3, 8] was −18.75% and −30.32% and −30.58% and −0.6% and −12.58% and −5.77% and −12.36% and −11.86% and the “CD4 Change (%)” value [3, 8] was −22.41% and −33.62% and −32% and −5.2% and −10.91% and −8.21% and −25.3% and −7.87%. The “CD8 Change (%)” value [3, 8] was −19.05% and −27.87% and −31.74% and −1.67% and −13.79% and 0% and −7.06% and −11.86%, the “markers of inflammation (IL-31, IL1β, IFNγ, RT-PCR, spleen)” value [4] was “significantly reduced markers of inflammation” and the “neuropathic pain, therapeutic treatment” value ([5]; 3 mg/kg/day oral after establishment of pain, maximum effect after 5th daily dose) was “reversal of neuropathic pain in time dependent manner”. The “development of neuropathic pain, prophylactic treatment” value ([5]; 0.3, 1 and 3 mg/kg/day oral, maximum effect at 3 mg/kg/day) was “inhibited the development of paclitaxel induced neuropathic pain dose dependently”, the “reduction of day 16 score” value ([5]; preventive model, 1 and 3 mg/kg dose levels, p<0.001) was over 60% and the “anti-allodynic effect after withdrawal of treatment on day 15” value ([5]; until 7 days post last drug treatment (day 22)) was “did not cause any reversal of the drug's anti-allodynic effect”. The “body temperature and organ histopathology” value [6] was “positive impact on the body temperature and organ histopathology”, the concentration at 3 weeks ([7]; 2 g daily of 3% ww formulation, 2 g daily topical 3% ww formulation for 3 weeks) was about 2.5 ng/mL and the concentration at 21 days ([7]; topical, 1 g of 3% by weight formulation per 150 cm^2, 1 g of 3% by weight formulation per 150 cm2 twice daily for 21 days) was about 2.2 ng/mL. The concentration at 1 week ([7]; topical, 2 g of 3% or 6% by weight formulation (60 mg or 120 mg) over the joint area for one week) was at most 2.5 ng/mL.
